Test [1] has as its system cerulein pancreatitis (CER-AP). The experiment in a line: Drug treatment of cerulein pancreatitis (CER-AP) in WT mice. It is filed as in vivo, mouse. On the procedure:
FIGS. 10A-10N show deranged cholesterol metabolism causes acinar cell damage, while its normalization ameliorates experimental pancreatitis. (A-D) Cholesterol content and trypsin activity were measured (per mg protein) in WT mouse acinar cells incubated for 1 hour without and with methyl-β-cyclodextrin (MCD; 10 mM) or cholesterol-loaded MCD (MCD-Chol; 200 μg/mL), in the presence or absence of 100 nM CCK. Values are expressed relative to those in cells without MCD/MCD-Chol. (E-J) WT mice received daily i.p. injections of the LXR agonist T0901317 (T09), simvastatin (Sim; 20 mg/kg each), or vehicle. On day 4, mice were subjected to CER-AP and pancreata collected for analyses (see also FIG. 20). Cholesterol content (E), trypsin activity (F), and pancreas histopathology (H&E staining; G) were measured. (H, I, L, and N) IB analysis of markers/mediators of autophagy (LC3, p62), ER stress (CHOP, GRP-78), and mitophagy (Parkin). Ub, ubiquitylated proteins. (J) Mitochondrial fragmentation was assessed by immunostaining for Tom20, as detailed in FIG. 7G. (K and L) Mouse acinar cells were treated for 16 hours with LDL (30 μg/mL) or the combination of LDL and 10 μM U18666A. (M and N) Mice received injections of U18666A as detailed in FIG. 9B. Pancreas histopathology (H&E staining; M) and levels of autophagy markers/mediators (N) were measured. Each symbol in A-F and I represents an individual mouse or cell preparation. Values are mean±SEM from 3 to 7 mice or cell preparations per condition. ^§ P<0.05, ^§§ P<0.01 vs. control cells (without MCD/MCD-Chol). ***P<0.001 vs. saline-treated mice. ^#P<0.05, ^##P<0.01, ^###P<0.001 vs. CER-AP alone (no inhibitors). Significance was determined by 2-tailed Student's t test (A-D) or 1-way ANOVA followed by Tukey's multiple comparison test (E, F, and I). Scale bars: 10 μm.
FIGS. 20A-20C show simvastatin improves cerulein pancreatitis. Mice received daily i.p. injections of simvastatin (Sim; 20 mg/kg) or vehicle (see FIG. 10), and on day 4 were subjected to cerulein pancreatitis (CER-AP). (A) Pancreas histopathology (H&E staining; scale: 10 μm). (B) IB analysis of markers/mediators of autophagy (LC3, p62), ER stress (CHOP), and the MLN64/STARD3 protein mediating cholesterol transfer from LE/Ly to mitochondria. Each IB lane represents an individual mouse; ERK1/2 is the loading control. […] Ub, ubiquitylated proteins. (C) Pancreatitis responses. Values are mean±SEM from 7-13 mice for each condition. ***p<0.001 vs saline control. ^###p<0.001 vs CER-AP alone (no simvastatin). Significance was determined by 1-way ANOVA followed by Tukey's multiple comparisons test.
FIGS. 25A-25C show reducing cholesterol overload greatly ameliorates experimental pancreatitis. CER-AP responses were measured in (A) AclyAac or (C) WT mice treated with simvastatin or bempedoic acid (BemA). (B) Acinar cells were transfected with ACLA (or mock) siRNA and subjected to ex-vivo CCK-AP. Each symbol represents an individual mouse or cell preparation. Values are mean±SE. **p<0.01, ***p<0.001 vs saline treated control mice (or mock transfection); #p<0.05, ##p<0.01, ###p<0.001 vs CER/CCK-AP in control mice (i.e. without inhibitors) or cells.
Cerulein-induced (CER-AP) and L-arginine induced (Arg-AP) acute pancreatitis models were performed in 12-week-old C57BL/6 mice that received 7 hourly i.p. injections of 50 μg/kg cerulein or 3 hourly i.p. injections of 3.3 g/kg Arg; controls received physiologic saline injections. Mice were euthanized for analyses 7 hours after the first cerulein or 24 hours after the first Arg injection. Choline deficient, ethionine-supplemented (CDE) pancreatitis was induced in young (~5-weeks old) female mice fed either CDE or control diet. Mice were euthanized 72 hours after the diet initiation. These models have been described in detail (1-7).
12-week-old WT mice were subjected for 4 consecutive days to daily i.p. injections of 20 mg/kg simvastatin (8,9) or 20 mg/kg T0901317 (10); or 10 mg/kg U18666A for 15 days (11). […]

The subject of test [2] is mouse pancreatic acinar cells. The test can be described thus: Ex-vivo CCK-AP in mouse pancreatic acinar cells treated with simvastatin or MCD. It is filed as cell-based. The following applies: simvastatin 4 μM, 3 h or MCD 10 mM, 1 h. As for the experimental part:
FIGS. 26A-26D preventing cholesterol overload ameliorates ex-vivo pancreatitis. Mouse pancreatic acinar cells were incubated (A, B) with simvastatin (4 μM, 3 h) or (C, D) cholesterol chelator, methyl-β-cyclodextrin (MCD; 10 mM, 1 h) and then subjected to CCK-AP for 1 (D) or 3 h (A, B). Cholesterol content (A, C) necrosis (B), and trypsin activity (D) were measured. Each symbol represents an individual cell preparation. Values are mean±SEM*p<0/05, **p<0.01 vs control; #p<0.05 ##p<0.01; vs CCK, no inhibitor.
Ex vivo pancreatitis models were performed on mouse and human acinar cells, and human pancreas slices by incubation with supramaximal CCK (100 nM) or carbachol (1 mM), as described previously (80, 81).
Activities of cathepsin (Cat) B and L, caspase-3, trypsin, and lysosomal acid lipase (LAL) were measured in pancreatic tissue or cell homogenates and subcellular fractions with fluorogenic assays using substrates specific for CatB (Z-Arg-Arg-AMC), CatL (Z-Phe-Arg-AMC), caspase-3-like ([…]), trypsin (Boc-Gln-Ala-Arg-AMC), as previously described (1-4, 6, 7); and for LAL (4-methylumbelliferyl oleate), as in (17). In measurements of CatL activity, the assay buffer also contained 50 μM CA-074me, a CatB inhibitor. LAL activity was measured in the absence and presence of the LAL inhibitor lalistat (100 μM) as the difference between these values (17).
Total cholesterol content was measured with Cholesterol Assay kit per manufacturer's instructions. Samples of mouse pancreas and liver, cell pellet homogenates, subcellular fractions, isolated mitochondria, and serum were diluted in the reaction buffer containing cholesterol probe and incubated at 37° C. for 1 h in the dark. To measure total cholesterol, the samples were subjected to digestion with cholesterol esterase. To measure non-esterified cholesterol, the esterase was omitted from the assay.

Setting [3] is: CER-AP, T0901317 or simvastatin 20 mg/kg i.p. daily.
Setting [4] is: WT mice treated with simvastatin or BemA.

As to `CCC(C)(C)C(=O)O[C@H]1C[C@@H](C)C=C2C=C[C@H](C)[C@H](CC[C@@H]3C[C@@H](O)CC(=O)O3)[C@H]21` [simvastatin], in test [1] (CER-AP, 20 mg/kg i.p. daily), the “CER-induced increase in MLN64” value is “abrogated”, the “accumulation of LC3-II” value is listed as “reduced”, the “accumulation of p62” value is “reduced” and the “accumulation of ubiquitylated proteins” value is recorded as “reduced”. For the same molecule, in test [1] (CER-AP, 20 mg/kg i.p. daily), the “mitochondrial fragmentation (Tom20 IF)” value was “normalized”. For the same molecule, the CHOP levels entry in test [1] (CER-AP, 20 mg/kg i.p. daily, ER stress) is “decreased”. For the same molecule, in test [1] (setting [3]), the “pancreatitis-induced increase in total cholesterol” value was “eliminated” and the “pancreatitis-induced increase in trypsin activity” value is given as “eliminated”. The other pancreatitis responses entry in test [1] (CER-AP, simvastatin 20 mg/kg i.p. daily, FIG. 20C) is recorded as “ameliorated”. Further, the “pancreas histopathology in CER-AP” value in test [1] (H&E, 20 mg/kg i.p. daily) is “improved”. In test [1] (setting [4]), the “cholesterol overload in CER-AP (FIG. 25C)” value is reported as “decreased”, the “inflammation in CER-AP (FIG. 25C)” value is “ameliorated”, the “necrosis in CER-AP (FIG. 25C)” value was “ameliorated” and the “trypsin activity in CER-AP (FIG. 25C)” value is on record as “ameliorated”. The “pathologic responses of experimental pancreatitis (impaired autophagy, ER stress and others)” value in test [1] (discussion statement) is “reduced”. In addition, in test [1] (overall result), the “experimental pancreatitis in WT mouse and ex vivo models” value was “ameliorated”. Further, in test [2], the “cholesterol overload in ex-vivo CCK-AP” value is on record as “Reducing”, the “extent of necrosis in ex-vivo CCK-AP” value is given as “greatly decreased” and the “trypsinogen activation in ex-vivo CCK-AP” value is given as “greatly decreased”.

For the origin of these results see patent US20260325485A1, “COMPOSITIONS AND METHODS FOR TREATING PANCREATITIS” (The United States Government as represented by the …, priority 2022, published 2026).
